{
  "source": "patent US5719132A",
  "about": "“Compositions and methods of treating HIV with d4T, 5-fluorouracil/tegafur, and uracil” (priority 1996, dated 1998)",
  "key": {"HIV [1]": {"test_system": "HIV", "conditions": "cited from earlier work"}, "[2]": {"test_system": "clinical HIV-1 isolate JEW", "experiment": "anti-HIV activity (p24 production) in PHA-stimulated PBMC, clinical isolate JEW", "type": "cell-based", "conditions": "for EC50: Human immunodeficiency virus 1, PBMC, mean of three experiments; for Fold Enhancement (d4T anti-HIV activity): Table 1; for Fold Enhancement (ddI anti-HIV activity): Table 2", "text": ".cndot.\"a\" refers to the EC50 data as representing the mean values from three experiments, with duplicate determinations in each experiment.\nVirus--A clinical HIV-1 isolate, JEW, was titrated with a infectivity assay [Johnson, V. A. and R. E. Byington. 1990. Infectivity assay, p. 71-76. in A. Aldovini and B. D. Walker (ed.), Techniques in HIV Research. Stockton Press, New York], and used in our experiments.\nChemicals--d4T was supplied by Bristol-Myers Squibb Company. 5-Fluorouracil(5-FU) was purchased from Sigma.\n1. PBMC were infected by the clinical isolate JEW at a multiplicity of infection (MOI) of 0.001 at 37° C. for one hour, and then resuspended in RPMI 1640 medium (Gibco, Gaithersburg, Md.) containing 20% fetal bovine serum (FBS, Sigma), 1 ng/ml IL-2 and 2 mM L-glutamine (Gibco) at a concentration of 4×10^6 cells/ml.\n2. d4T (2 μM) or ddI (40 μM) was serially diluted 1:3 into RPMI 1640 medium with a final volume of 100 μl/well in 96-well plates, and 50 μl of 2.0 μM, 0.8 μM and 0 μM 5-FU were then added to each well.\n3. 50 μl of 4×10^6 / ml infected PBMC were added to each well in these plates to get a final 1×10^6 cells/ml, and incubated at 37° C.\n4. Half media (100 μl) from each well were removed and replaced with fresh medium containing same concentrations of drug at day 3 or 4.\n5. Samples were collected at day 7 and the p24 levels were quantitated using a HIV p24 ELISA kit (Dupont, Boston, Mass.)."}, "[3]": {"test_system": "HIV-1 reverse transcriptase", "conditions": "in vitro; cited from earlier work"}, "HIV [4]": {"test_system": "HIV", "conditions": "20 patients treated for up to 24 months; cited from earlier work"}, "[5]": {"test_system": "human immunodeficiency virus (HIV)", "conditions": "cited from earlier work"}, "[6]": {"conditions": "cited from earlier work"}, "clinical HIV isolate OLR": {"test_system": "clinical HIV isolate OLR", "experiment": "anti-HIV activity in PBMC, clinical isolate OLR", "type": "cell-based", "conditions": "with 0.1 μM 5-FU", "description": "The 50% cytotoxicity concentration of 5-FU in PHA--PBMC is approximately 9 μM (i.e. micromolar) as determined by trypan blue staining."}, "[7]": {"conditions": "clinical studies; cited from earlier work"}, "[8]": {"conditions": "in vivo; cited from earlier work"}, "PHA-PBMC": {"test_system": "PHA-PBMC", "experiment": "cytotoxicity in PBMC by trypan blue exclusion", "description": "(§1) Cells--Peripheral blood mononuclear cells (PBMC) from normal individuals were prepared by Ficoll-Hypaque gradient centrifugation of venous blood with citrate as an anticoagulant and stimulated with phytoagglutinin (PHA--P, 4 μg/ml, Sigma Chemical, St. Louis, Mo.) and interleukin-2 (IL-2, 1 ng/ml, Upstate Biotechnology Inc., Lake Placid, N.Y.) for three days.\n(§2) To determine the cytotoxicity of 5-FU, uninfected PBMC were incubated with a series of concentrations of 5-FU (i.e., 0.04, 0.16, 0.63, 2.5 and 10 μM). To determine whether 5-FU can affect the cytotoxicity of d4T, uninfected PBMC were incubated with a series of concentrations of d4T (i.e., 0.8, 3.1, 12.5, 50 and 200 μM) containing 0.02 μM of 5-FU. This was repeated with d4T using 5-FU concentrations of 0.1 μM and 0.5 μM, respectively. Cell viability was monitored by trypan blue exclusion assay. Results were expressed as a percentage of living cells in drug testing wells compared to those in untreated control wells. The 50% cytotoxic concentration (CC50) was calculated as the concentration of drugs that decreased the percentage of living cells in drug-treated wells to 50% of those in untreated wells."}, "in vitro": {"experiment": "in vitro", "conditions": "human, pha-stimulated pbmc", "description": "as §1, §2"}, "[9]": {"test_system": "thymidylate synthetase (TS)", "conditions": "cited from earlier work"}, "[10]": {"test_system": "degradation of 5-fluorouracil", "conditions": "in vitro; cited from earlier work"}, "HIV [11]": {"test_system": "HIV", "conditions": "lowering of endogenous dATP; cited from earlier work"}},
  "note": "Like-named read-outs stand apart in the source and are kept apart here.",
  "data": [
    {"molecule": "Cc1cn([C@H]2C=C[C@@H](CO)O2)c(=O)[nH]c1=O", "note": "[d4T, 2',3'-didehydro-3'-deoxythymidine]", "values": [
      {"measurement": "time until CD4 counts and serum p24 levels return to baseline", "setting": "HIV [1]; duration of anti-viral responses in patients", "value": "approximately 6 months"},
      {"measurement": "CD4 counts", "setting": "HIV [1]; treated patients", "value": "increases in CD4 counts"},
      {"measurement": "serum p24 levels and infectious HIV titers in PBMC", "setting": "HIV [1]; treated patients", "value": "decreases in both serum p24 levels and infectious HIV titers"},
      {"measurement": "EC50", "setting": "[2]; read-out: EC50 of d4T, PHA-stimulated PBMC, isolate JEW, 5-FU 0 μM", "value": "0.098 ± 0.042", "unit": "µM"},
      {"measurement": "EC50", "setting": "[2]; read-out: EC50 of d4T, PHA-stimulated PBMC, isolate JEW, with 5-FU 0.2 μM", "value": "0.092 ± 0.039", "unit": "µM"},
      {"measurement": "EC50", "setting": "[2]; read-out: EC50 of d4T, PHA-stimulated PBMC, isolate JEW, with 5-FU 0.5 μM", "value": "0.027 ± 0.015", "unit": "µM"},
      {"measurement": "fold enhancement of the anti-HIV activity of d4T", "setting": "[2]; with 0.5 μM 5-FU, isolate JEW", "value": "≤ 4", "unit": "fold"},
      {"measurement": "Fold Enhancement (d4T anti-HIV activity)", "setting": "[2]; with 5-FU 0.2 μM", "value": 1, "unit": "X"},
      {"measurement": "Fold Enhancement (d4T anti-HIV activity)", "setting": "[2]; with 5-FU 0.5 μM", "value": 4, "unit": "X"},
      {"measurement": "inhibition of HIV-1 reverse transcriptase", "setting": "[3]", "value": "potent inhibitor"},
      {"measurement": "resistant viruses isolated", "setting": "HIV [4]", "value": "no resistant viruses can be isolated"},
      {"measurement": "antiviral activity against HIV", "setting": "[5]", "value": "demonstrated antiviral activity"},
      {"measurement": "dose-limiting toxicity", "setting": "[6]; clinical studies", "value": "peripheral neuropathy"},
      {"measurement": "undesirable side effects", "setting": "[6]; human, in vivo", "value": "peripheral neuropathy"},
      {"measurement": "fold enhancement of d4T activity", "setting": "clinical HIV isolate OLR", "value": 4.5, "unit": "fold"},
      {"measurement": "oral bioavailability", "setting": "[7]", "value": "greater than 80%"}
    ]},
    {"molecule": "O=c1[nH]cc(F)c(=O)[nH]1", "note": "[5-FU, 5-fluorouracil]", "values": [
      {"measurement": "potentiating effect on the anti-HIV activity of ddI", "setting": "[2]; up to 0.5 μM 5-FU, PBMC", "value": "no potentiating effect"},
      {"measurement": "antiviral activity alone", "setting": "[2]; up to 0.5 μM, PHA-PBMC acutely infected by isolate JEW", "value": "no antiviral activity"},
      {"measurement": "half-life", "setting": "[8]", "value": "very short half-life"},
      {"measurement": "toxicity to PBMC", "setting": "PHA-PBMC; up to 0.5 μM", "value": "non-toxic"},
      {"measurement": "potentiating effect on d4T cytotoxicity", "setting": "PHA-PBMC; up to 0.5 μM 5-FU, PBMC", "value": "no potentiating effect"},
      {"measurement": "CC50", "setting": "in vitro", "value": "~9", "unit": "µM"},
      {"measurement": "TS inhibition", "setting": "[9]", "value": "effective TS inhibitor"}
    ]},
    {"molecule": "O=c1cc[nH]c(=O)[nH]1", "note": "[uracil]", "values": [
      {"measurement": "inhibition of degradation of 5-fluorouracil", "setting": "[10]", "value": "strongly inhibits the degradation of 5-fluorouracil"}
    ]},
    {"molecule": "NC(=O)NO", "note": "[hydroxyurea]", "values": [
      {"measurement": "effect of hydroxyurea on anti-HIV activity of ddI", "setting": "HIV [11]", "value": "enhanced anti-HIV activity of ddI"}
    ]},
    {"molecule": "Nc1ncnc2c1ncn2[C@H]1CC[C@@H](CO)O1", "note": "[ddA, 2',3'-dideoxyadenosine]", "values": [
      {"measurement": "antiviral activity against HIV", "setting": "[5]", "value": "demonstrated antiviral activity"}
    ]},
    {"molecule": "OC[C@@H]1CC[C@H](n2cnc3c(O)ncnc32)O1", "note": "[ddI, 2',3'-dideoxyinosine]", "values": [
      {"measurement": "EC50", "setting": "[2]; PHA-stimulated PBMC, isolate JEW, 5-FU 0 μM, read-out: EC50 of ddI", "value": "0.1 ± 0.032", "unit": "µM"},
      {"measurement": "EC50", "setting": "[2]; PHA-stimulated PBMC, isolate JEW, with 5-FU 0.2 μM, read-out: EC50 of ddI", "value": "0.17 ± 0.002", "unit": "µM"},
      {"measurement": "Fold Enhancement (ddI anti-HIV activity)", "setting": "[2]; with 5-FU 0.2 μM", "value": 0.6, "unit": "X"},
      {"measurement": "Fold Enhancement (ddI anti-HIV activity)", "setting": "[2]; with 5-FU 0.5 μM", "value": 0.7, "unit": "X"},
      {"measurement": "antiviral activity against HIV", "setting": "[5]", "value": "demonstrated antiviral activity"}
    ]},
    {"molecule": "Nc1ccn([C@H]2CC[C@@H](CO)O2)c(=O)n1", "note": "[ddC, 2',3'-dideoxycytidine]", "values": [
      {"measurement": "antiviral activity against HIV", "setting": "[5]", "value": "demonstrated antiviral activity"}
    ]},
    {"molecule": "Nc1ccn([C@H]2C=C[C@@H](CO)O2)c(=O)n1", "note": "[d4C, 2',3'-dideoxycytidin-2'-ene]", "values": [
      {"measurement": "antiviral activity against HIV", "setting": "[5]", "value": "demonstrated antiviral activity"}
    ]}
  ]
}
